Experimental data as given in patent publication US9907852B2, “Anticancer agent and side-effect-alleviating agent” (National University Corporation University of Toyama, priority 2014, dated 2018).

Legend:
[1] = tested on: Human pancreatic cancer cell Suit 2; test: Tumor size in mice transplanted subcutaneously with Suit 2 (Test Example 1); type: in vivo; settings: after 4 weeks from the starting of treatment; extract 0.5% (w/w) in feed, bevacizumab 5 mg/kg i.p. once a week, gemcitabine 100 mg/kg i.p. twice a week
Description: (§1) Human pancreatic cancer cell Suit 2 (1×10^6 cells) was transplanted subcutaneously to BALB/cAJc1-nu/nu mice (CLEA Japan, Inc.) . On 21th day after the transplantation, the transplanted mice were divided into 4 groups, that is, (a) an untreated group, (b) a group to which a Burdock Fruit extract was administered, (c) a group to which bevacizumab was administered, and (d) a group to which gemcitabine was administered, and the treatment was continued for 4 weeks. The Burdock Fruit extract of Example 1 was mixed into feed at a rate of 0.5% (w/w) and the resultant was given to mice. The ingestion of feed was 3 to 5 g a day for a mouse, from which the intake of arctigenin was calculated as […]. Bevacizumab, as Avastin 100 mg/4 ml for intravenous injection (Chugai Pharm. Co.) , was intraperitoneally injected at a dose of 5 mg/kg once a week. As gemcitabine, an intravenous drip preparation of gemcitabine (Eli Lilly and Co.) was intraperitoneally injected at a dose of 100 mg/kg twice a week.
The average tumor size after 4 weeks from the starting of treatment in the respective groups was as follows: (a) 228 mm^2 in the untreated group; (b) 189 mm^2 in the Burdock Fruit extract administered group; (c) 56 mm^2 in the bevacizumab administered group to which was; and (d) 68 mm^2 in the gemcitabine administered group.

[2] = tested on: Human pancreatic cancer cell Suit 2; test: Uptake of gadolinium DTPA in tumor tissue by MRI, blood stream in tumor (Test Example 1); type: in vivo, mice; settings: after intravenous injection of gadolinium DTPA; after 4 weeks of treatment
Description: as §1
After 4 weeks from the starting of treatment, the uptake of gadolinium DTPA in the mouse tumor tissue was evaluated in the respective groups. […] From this photograph the signal intensity of gadolinium DTPA in the tumor tissue was measured. […]

[3] = tested on: Human pancreatic cancer cells Miapaca-2; test: Tumor weight in mice transplanted subcutaneously with Miapaca-2 (Test Example 3); type: in vivo; settings: after 4 weeks; extract 250 mg/kg oral 5 times a week, gemcitabine 150 mg/kg i.p. twice a week
Description: Human pancreatic cancer cells Miapaca-2 (ATCC CRL 1420) (5×10^6 cells/200 μl) were transplanted subcutaneously under the armpit of BALB/cAJcl nu/nu mice (CLEA Japan, Inc.) . After feeding for about 2-3 weeks, those of which cancer grew to about 100 mm^3 were selected and employed as the subject mice to be treated. The subject mice of treatment were divided into 4 groups, that is, (a) an untreated group, (b) a group administered gemcitabine, (c) a group administered a Burdock Fruit extract, and (d) a group administered in combination with a Burdock Fruit extract and gemcitabine (combined administration group), and the treatment was continued for 4 weeks. […] After termination of the therapeutic test, the tumor weight was measured in the respective groups.

[4] = tested on: Human pancreatic cancer cells Miapaca-2; test: Proportion of the cancer stem cells in tumor by flow cytometry, Miapaca-2 (Test Example 3); type: in vivo, mice; settings: after the therapeutic test (4 weeks)
Description: Human pancreatic cancer cells Miapaca-2 (ATCC CRL 1420) (5×10^6 cells/200 μl) were transplanted subcutaneously under the armpit of BALB/cAJcl nu/nu mice (CLEA Japan, Inc.) . After feeding for about 2-3 weeks, those of which cancer grew to about 100 mm^3 were selected and employed as the subject mice to be treated.
The subject mice of treatment were divided into 4 groups, that is, (a) an untreated group, (b) a group administered gemcitabine, (c) a group administered a Burdock Fruit extract, and (d) a group administered in combination with a Burdock Fruit extract and gemcitabine (combined administration group), and the treatment was continued for 4 weeks. The Burdock Fruit extract, 250 mg/kg prepared in Example 1 (25 mg/kg or more as arctigenin), was orally administered everyday (for 5 times a week). As gemcitabine, an intravenous drip preparation of gemcitabine (Eli Lilly and Co.) was used, and 150 mg/kg was intraperitoneally given twice a week.
The cancer cells were recovered from the tumor tissue after termination of the treatment test, and using the triple positive markers, CD24, CD44 and ESA (CD326) as well as the double positive markers, CD133 and CD44, and the proportion of CD44^+, CD24^+, CD326^+ cells (triple positive) and CD133^+, CD44^+ cells (double positive) was evaluated. In the evaluation, a FACS ARIA II flow cytometer (BD bioscience) was used.

[5] = tested on: Human pancreas cancer cells Miapaca-2 cells; test: Survival in orthotopic graft model of pancreas cancer (Test Example 4); type: in vivo, mice
Description: Human pancreas cancer cells Miapaca-2 cells were suspended in a highly concentrated Matrigel solution (BD bioscience) at 5×10^6 cells/50 μl. A female BALB/cAJcl-nu/nu mice (8 weeks of age) (CLEA Japan, Inc.) were subjected to laparotomy under anesthesia, the above-prepared cell suspension was poured into pancreatic tissue and solidified, followed by suture and closing.
The mice after transplantation were divided into 4 groups (7 mice in one group), that is, an untreated group (Non treat); a group to which 250 mg/kg of Burdock Fruit extract (Kracie Pharm., GBS-01) containing 10% of arctigenin was orally administered every day (GBS-01); a group which was intraperitoneally given 150 mg/kg of gemcitabine (Eli Lilly & Co.) twice a week (Gemcitabine); and a group of combined administration of them(Combination), and the treatment was continued until all of the mice died.
The survival rate was calculated according to the Kaplan-Mayer method by making a curve of survival rate and calculating the median of survival rate (MST) (GraphPad-PRISM 6.2, MDF Co.). The significant difference was evaluated by means of Logrank (Mantel-COX) and Gehan-Breslow-Wilcoxon test. The calculated results were shown on an upper graph of FIG. 5.

[6] = Toxicity test by concomitant repeated-dose administration (Test Example 8); type: in vivo, mice; settings: after 7 weeks
Description: SIX SCR-ICR mice (female of 6 weeks of age) (SLC Co.) were used in each of 4 groups, that is, (a) untreated group, (b) gemcitabine administered group, (c) Burdock Fruit extract administered group, and (d) group of combined administration of Burdock Fruit extract and gemcitabine (combined administration group). In each group, each of the therapeutic agents was administered continuously for a period of 7 weeks.
Burdock Fruit extract, 250 mg/kg prepared in Example 1 (25 mg/kg as arctigenin) , was orally administered 5 times a week. As gemcitabine, an intravenous drip preparation of gemcitabine (Eli Lilly and Co.) was used, and 100 mg/kg was intraperitoneally administered once a week.
During the term of administration for about 7 weeks, measurement of body weight, observation of skin and oral state, as well as observation of feces were practiced every 5 days. As a result, there was recognized no symptom which reminded any side effect such as inflammation in skin and mucous membrane, depilation or diarrhea in all of the administered groups. In addition, generally there was no difference of significance in body weight which is an indicator of nausea, loss of appetite, side effect in digestive system, and the like.
After termination of administration, the mice were anesthetized deeply, subjected to thoracotomy and complete blood drawing from heart. In addition, kidney, liver, spleen and lung were recovered, the weight was measured.
In addition, a hemocytic and biochemical examination was carried out using the collected blood.

tumor tissue [7] = test: Occurrence of ulcer in the tumor tissue (Test Example 2); type: in vivo; settings: rate of mice which generated ulcer in the tumor; administration over 5 weeks
From the text: In the course of the growth of tumor, nutrition and oxygen have to be supplied over the grown entire tumor tissue through the blood vessels. In most of tumor, however, it is considered that these are not supplied sufficiently because of immature angioplasty to cause a partial necrosis of tissue and an ulcerous portion occurs. In this situation, in order to inspect the effect of normalization of intra-tumor blood stream by the above described Burdock Fruit extract, the occurrence of ulcer in the tumor tissue after the respective treatments was observed.
(§2) For tumor tissue, a single administration of a Burdock Fruit extract, a single administration of bevacizumab and a combined administration of a Burdock Fruit extract and bevacizumab were performed over a period of 5 weeks. […] Thus, the suppression effect on ulcer generation in tumor was recognized in the Burdock Fruit extract-administered group and the concomitantly administered group compared with that in the untreated group and the bevacizumab-administered group. In the bevacizumab-administered group, the inhibitory effect for ulcer generation was recognized in comparison with the untreated group, though it was temporal. This effect is considered to be an inhibitory activity of bevacizumab for angiogenesis. […]

tumor tissue [8] = test: Survival period after 5 weeks of treatment (Test Example 2); type: in vivo, mice; settings: treatment terminated after 5 weeks, survival followed up
Description: as §2, with “angiogenesis. On the other hand, when the combined administration of a Burdock Fruit extract in addition to bevacizumab, the inhibitory effect on ulcer generation was raised. This is considered that, in addition to the improved effect for blood stream in tumor by a single preparation of bevacizumab, the blood stream was further improved by combined administration of a Burdock Fruit extract which suppressed an occurrence of a hypoxia and undernutritional region and further suppressed angiogenesis. Thus, since the combined administration of arctigenin can markedly reduce a hypoxia and undernutritional region, it is expected to suppress the malignant transformation of cancer.” for “angiogenesis.”

[9] = tested on: Human colorectal cancer cells LS174T; test: Tumor weight in mice transplanted subcutaneously with LS174T (Test Example 7); type: in vivo; settings: after 4 weeks; extract 250 mg/kg oral 6 times a week, bevacizumab 5 mg/kg i.p. once a week
Description: (§3) On the 14th day, the transplanted mice were divided into 4 groups, that is, (a) an untreated group, (b) a bevacizumab-administered group, (c) a Gogoshi extract-administered group, and (d) a group of combined administration of a Burdock Fruit extract and bevacizumab (combined administration group), and the treatment was continued for 4 weeks. When a Burdock Fruit extract was administered, 250 mg/kg of Burdock Fruit extract (25 mg/kg as arctigenin) of Example 1 was orally administered 6 times a week. Bevacizumab, as Avastin for intravenous drip injection (100 mg/4 ml) (Chugai Pharm. Co.), was intraperitoneally injected at a dose of 5 mg/kg once a week.
After termination of the therapeutic test, the tumor weight was measured in the respective groups. As results, the tumor weight after termination of the therapeutic test was as follows: 2.51 g in the untreated group, 1.33 g in the bevacizumab administered group, 1.25 g in the Burdock Fruit extract administered group, and 0.68 g in the combined administration group. Accordingly, in any group including the bevacizumab administered group, the Burdock Fruit extract administered group and the combined administration group, the inhibition of increase of tumor weight was recognized compared with the untreated group. […]

[10] = tested on: Human colorectal cancer cells LS174T; test: Proportion of cancer stem cells in tumor by flow cytometry, LS174T (Test Example 7); type: in vivo, mice; settings: after termination of the treatment test (4 weeks)
Description: as §3
The cancer cells were then recovered from the tumor tissue, and using the double positive markers, CD133 and CD44, the proportion of CD133^+, CD44^+ cells in tumor after termination of the treatment test was evaluated by means of a FACS ARIA II flow cytometer (BD bioscience).

[11] = gemcitabine 100 mg/kg i.p. once a week

Row | Molecule | average tumor size [1] [mm^2] | increase of signal intensity in the central part of tumor tissue (in words) [2] | tumor weight [3] [g] | ratio of CD133+, CD44+ cells (double positive) in tumor [4] [%] | ratio of CD44+, CD24+, CD326+ cells (triple positive) in tumor ([4]; average of 4 samples) [%] | median of survival time (MST) ([5]; GBS-01 250 mg/kg oral every day, gemcitabine 150 mg/kg i.p. twice a week, until all mice died) [days] | prolongation of MST ([5]; against the untreated group (65 days)) [%] | hematocrit value (in words) [6] | hemoglobin value (in words) [6] | weight/body weight rate (%) of liver, lowering compared with the untreated group [6, 11] | weight/body weight rate (%) of spleen, lowering compared with the untreated group [6, 11] | number of erythrocytes compared with the untreated group ([6]; value as % of untreated) | number of leukocytes compared with the untreated group ([6]; value as % of untreated) | number of platelets compared with the untreated group ([6]; value as % of untreated) | ALT, rise compared to the untreated group ([6]; hepatopathy marker) [%] | AST, rise compared to the untreated group ([6]; hepatopathy marker) [%] | duration until the generation of ulcer reached 50% (tumor tissue [7]) [days] | 50% survival period (tumor tissue [8]) [days] | tumor weight [9] [g] | proportion of CD133+, CD44+ cells (double positive) in tumor [10] [%]
1 | Nc1ccn([C@@H]2O[C@H](CO)[C@@H](O)C2(F)F)c(=O)n1 [gemcitabine] | 68 | no increase | 1.24 | 3.5 | 1.6 | 86 | 32.3 | lowering | lowering | about 20% | about 20% | approximately 87% | approximately 50% | approximately 70% | 102 | 46 | – | – | – | –
2 | bevacizumab | 56 | tendency of increasing | – | – | – | – | – | – | – | – | – | – | – | – | – | – | 10 | 107 | 1.33 | 0.552
